# Measurements published in the supplement of paper PMC7017272.
# ± gives the standard deviation of the averaged measurements.
# Legend:
# Settings in all cases: treatment time: 3 days
# [1] = tested on: UT-SCC-24B; test: drug sensitivity score (DSS); higher = more sensitive; extreme values may be limits of the assay
# Summary of the method: (§1)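 Viability of HPV-negative HNSCC cell lines was measured by CellTiter-Glo 2.0 luminescence. Cells were seeded at 500 cells/well in 384-well plates on plastic, on Matrigel- or Myogel-coated wells (500 µg/mL), or embedded in Matrigel or Myogel plus rat collagen I, then given compounds at five 10-fold concentrations for 3 days, with signals normalised to vehicle (0.1% DMSO) and cell-killing control wells. Fitting of percent-inhibition dose–response curves in the FIMM pipeline yielded IC50, maximal inhibition and drug sensitivity score.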
# [2] = tested on: UT-SCC-73; test: as above
# Summary of the method: as §1
# [3] = tested on: UT-SCC-81; test: as above
# Summary of the method: as §1
# [4] = tested on: UT-SCC-42A; test: as above
# Summary of the method: as §1
# [5] = tested on: UT-SCC-40; test: as above
# Summary of the method: as §1
# [6] = tested on: UT-SCC-44; test: as above
# Summary of the method: as §1
# [7] = tested on: UT-SCC-28; test: as above
# Summary of the method: as §1
# [8] = tested on: UT-SCC-42B; test: as above
# Summary of the method: as §1
# [9] = tested on: UT-SCC-8; test: as above
# Summary of the method: as §1
# [10] = tested on: UT-SCC-14; test: as above
# Summary of the method: as §1
# [11] = tested on: UT-SCC-106A; test: as above
# Summary of the method: as §1
# [12] = tested on: UT-SCC-24A; test: drug sensitivity score (DSS); higher = more sensitive
# Experimental: (§2)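 HNSCC cell lines (500 cells/well, 384-well) were cultured on plastic, on top of (2D) or embedded (3D) in Matrigel or human leiomyoma matrix Myogel (500 ug/mL; Myogel 3D mixed with rat collagen I). Cells were treated for 3 days with 5 ten-fold concentrations of each drug, and viability was read by CellTiter-Glo. Suffixes _1/_2/_3 on drug names are replicates.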
# [13] = tested on: UT-SCC-73; test: maximal % inhibition of viability relative to DMSO; higher = stronger effect
# Summary of the method: as §1
# [14] = tested on: UT-SCC-44; test: as above
# Summary of the method: as §1
# [15] = tested on: UT-SCC-106A; test: as above
# Summary of the method: as §1
# [16] = tested on: UT-SCC-24A; test: maximal % inhibition of viability relative to DMSO; higher = stronger effect
# Experimental: as §2, with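 “CellTiter-Glo. Viability was normalised to DMSO (0% inhibition) and 100 uM benzethonium chloride (100% inhibition) controls and fitted with the FIMM DSRT pipeline to give IC50 (nM), maximal % inhibition and the drug sensitivity score (DSS).” for “CellTiter-Glo.”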
# [17] = culture condition: embedded in Matrigel
# [18] = culture condition: embedded in Myogel + collagen I
# [19] = culture condition: on top of Matrigel
# [20] = culture condition: on top of Myogel
# [21] = culture condition: plastic 2D (no matrix)
structure (smiles),measurement,setting,value
CO[C@H]1C[C@@H]2CC[C@@H](C)[C@@](O)(O2)C(=O)C(=O)N2CCCC[C@H]2C(=O)O[C@H]([C@H](C)C[C@@H]2CC[C@@H](OP(C)(C)=O)[C@H](OC)C2)CC(=O)[C@H](C)/C=C(\C)[C@@H](O)[C@@H](OC)C(=O)[C@H](C)C[C@H](C)/C=C/C=C/C=C/1C [Ridaforolimus],drug sensitivity score,[1]; [17],2.9 ± 2.8 DSS
same,drug sensitivity score,[1]; [18],7.87 ± 0.8 DSS
same,drug sensitivity score,[1]; [19],3.8 ± 0.66 DSS
same,drug sensitivity score,[1]; [20],4.63 ± 1.4 DSS
same,drug sensitivity score,[1]; [21],5.37 ± 2 DSS
same,drug sensitivity score,[2]; [17],7.23 ± 3 DSS
same,drug sensitivity score,[2]; [18],8.57 ± 6 DSS
same,drug sensitivity score,[2]; [19],6.9 ± 1.3 DSS
same,drug sensitivity score,[2]; [20],8 ± 0.79 DSS
same,drug sensitivity score,[2]; [21],4.93 ± 0.94 DSS
same,drug sensitivity score,[3]; [17],8.6 ± 4.5 DSS
same,drug sensitivity score,[3]; [18],11.8 ± 3.1 DSS
same,drug sensitivity score,[3]; [19],9.37 ± 2.3 DSS
same,drug sensitivity score,[3]; [20],10.9 ± 4 DSS
same,drug sensitivity score,[3]; [21],8.77 ± 5 DSS
same,drug sensitivity score,[4]; [17],3.43 ± 0.55 DSS
same,drug sensitivity score,[4]; [18],5.73 ± 1.1 DSS
same,drug sensitivity score,[4]; [19],6.43 ± 1.4 DSS
same,drug sensitivity score,[4]; [20],5.2 ± 1.3 DSS
same,drug sensitivity score,[4]; [21],5.6 ± 2.1 DSS
same,drug sensitivity score,[5]; [17],4.97 ± 2.8 DSS
same,drug sensitivity score,[5]; [18],7.83 ± 3.9 DSS
same,drug sensitivity score,[5]; [19],4.8 ± 0.78 DSS
same,drug sensitivity score,[5]; [20],4.23 ± 0.46 DSS
same,drug sensitivity score,[5]; [21],3.77 ± 0.47 DSS
same,drug sensitivity score,[6]; [17],6.7 ± 3.6 DSS
same,drug sensitivity score,[6]; [18],6.23 ± 0.99 DSS
same,drug sensitivity score,[6]; [19],10.7 ± 2.2 DSS
same,drug sensitivity score,[6]; [20],11.2 ± 1.4 DSS
same,drug sensitivity score,[6]; [21],9.63 ± 3 DSS
same,drug sensitivity score,[7]; [17],4.87 ± 2.8 DSS
same,drug sensitivity score,[7]; [18],4.37 ± 4 DSS
same,drug sensitivity score,[7]; [19],6.87 ± 2.6 DSS
same,drug sensitivity score,[7]; [21],6.37 ± 3.5 DSS
same,drug sensitivity score,[8]; [17],0.8 ± 0.76 DSS
same,drug sensitivity score,[8]; [19],0.233 ± 0.4 DSS
same,drug sensitivity score,[8]; [20],0.367 ± 0.4 DSS
same,drug sensitivity score,[8]; [21],0.4 ± 0.36 DSS
same,drug sensitivity score,[9]; [17],9.67 ± 4 DSS
same,drug sensitivity score,[9]; [18],4.03 ± 1 DSS
same,drug sensitivity score,[9]; [19],9.27 ± 3.7 DSS
same,drug sensitivity score,[9]; [20],12.5 ± 4.2 DSS
same,drug sensitivity score,[9]; [21],10.2 ± 3.6 DSS
same,drug sensitivity score,[10]; [17],13.8 ± 3.1 DSS
same,drug sensitivity score,[10]; [18],15.2 ± 1.2 DSS
same,drug sensitivity score,[10]; [19],12.9 ± 1.5 DSS
same,drug sensitivity score,[10]; [20],13 ± 2.4 DSS
same,drug sensitivity score,[10]; [21],11.9 ± 2.8 DSS
same,drug sensitivity score,[11]; [17],4.2 ± 1.4 DSS
same,drug sensitivity score,[11]; [18],2.63 ± 0.21 DSS
same,drug sensitivity score,[11]; [19],6.4 ± 3.5 DSS
same,drug sensitivity score,[11]; [20],2.9 ± 1.1 DSS
same,drug sensitivity score,[11]; [21],7.57 ± 1.7 DSS
same,drug sensitivity score,[12]; [17],10.2 ± 10 DSS
same,drug sensitivity score,[12]; [18],5.43 ± 0.71 DSS
same,drug sensitivity score,[12]; [19],4.57 ± 1.2 DSS
same,drug sensitivity score,[12]; [20],5.03 ± 1.4 DSS
same,drug sensitivity score,[12]; [21],5.87 ± 0.67 DSS
same,maximal % inhibition of viability,[13]; [17],38.7 ± 16%
same,maximal % inhibition of viability,[13]; [18],42.4 ± 11%
same,maximal % inhibition of viability,[13]; [19],30.6 ± 3.4%
same,maximal % inhibition of viability,[13]; [20],40.2 ± 1.8%
same,maximal % inhibition of viability,[13]; [21],31.5 ± 4.3%
same,maximal % inhibition of viability,[14]; [17],32.8 ± 14%
same,maximal % inhibition of viability,[14]; [18],44.1 ± 8.6%
same,maximal % inhibition of viability,[14]; [19],39.2 ± 2.1%
same,maximal % inhibition of viability,[14]; [20],36.9 ± 4.2%
same,maximal % inhibition of viability,[14]; [21],33.7 ± 6.2%
same,maximal % inhibition of viability,[15]; [17],35 ± 4.2%
same,maximal % inhibition of viability,[15]; [18],27.4 ± 2.9%
same,maximal % inhibition of viability,[15]; [19],34.5 ± 4%
same,maximal % inhibition of viability,[15]; [20],27.5 ± 2.6%
same,maximal % inhibition of viability,[15]; [21],41 ± 1.9%
same,maximal % inhibition of viability,[16]; [17],56.1 ± 36%
same,maximal % inhibition of viability,[16]; [18],35.7 ± 4%
same,maximal % inhibition of viability,[16]; [19],29.4 ± 3.8%
same,maximal % inhibition of viability,[16]; [20],32.7 ± 3.6%
same,maximal % inhibition of viability,[16]; [21],33 ± 5.9%
